Reference: patent US20170304178A1, “Peptides and Their Use in the Treatment of Skin” (AVON PRODUCTS, INC., priority 2014, published 2017)
Marks after values point to notes of the source that are not given here. Residues, ends and D or L forms follow the SMILES beside them.

How the values were obtained:
[1] = test system: human dermal fibroblast cells; experiment: Secreted hyaluronic acid (HA) in media of human dermal fibroblasts (HA Elisa kit); assay type: cell-based; conditions: 48 h, percent change relative to vehicle control
Description: (§1) Human dermal fibroblast cells were grown in a 96 well plate in DMEM media (available from Corning, N.Y.) supplemented with 10% Fetal Bovine Serum (FBS) and L-glutamine (0.07×10^5 cells/plate). After reaching about 75% confluence, cells were transferred into DMEM media without FBS and incubated for 4-6 hours. Next, cells were treated with peptides of Formulas I-V at 0.00001%, 0.0001%, 0.001% final concentration in DMEM media without FBS for 48 h. After treatment the media were collected, and cell viability was measured using MTT. The amount of secreted collagen was tested in the media using HTRF human pro-collagen I kit (Cisbio Inc, Bedford, Mass.). The amount of secreted Hyaluronic Acid (HA) was tested in the media using HA Elisa kit (available from Corgenix, Broomfield, Colo.).
(§2) Results are summarized in Table 1 below as percent change of pro-collagen I and HA production relative to vehicle control: […]

[2] = test system: human dermal fibroblast cells; experiment: Secreted pro-collagen I in media of human dermal fibroblasts (HTRF human pro-collagen I kit); assay type: cell-based; conditions: 48 h, percent change relative to vehicle control
Description: as §1, §2

SMILES | Increase in HA Production ([1]; peptide concentration 0.001%) | Increase in Pro-Collagen I Production ([2]; peptide concentration 0.00001%) | Increase in Pro-Collagen I Production ([2]; peptide concentration 0.001%) | Increase in HA Production ([1]; peptide concentration 0.0001%)
CC(NC(=O)CNC(=O)C(CC(=O)O)NC(=O)C(CCCCN)NC(=O)C(C)NC(=O)C(N)C(C)O)C(=O)NC(C(=O)O)C1CCCN1 (stereo not drawn) [TAKDGAP (SEQ ID NO: 3), Thr-Ala-Lys-Asp-Gly-Ala-Pro] | +50-90% | +10-30%** | – | –
CCC(C)C(NC(=O)C(CCCCN)NC(=O)C(NC(=O)C(NC(=O)C(N)CCCNC(=N)N)C(C)O)C1CCCN1)C(=O)NC(CO)C(=O)NC(CCCCN)C(=O)NC(C(=O)NC(C(=O)NC(CCCCN)C(=O)NC(Cc1ccccc1)C(=O)NC(CCC(=O)O)C(=O)NC(CC(C)C)C(=O)NC(CO)C(=O)NCC(=O)O)C(C)CC)C1CCCN1 (stereo not drawn) [RTPKISKPIKFELSG (SEQ ID NO: 5), Arg-Thr-Pro-Lys-Ile-Ser-Lys-Pro-Ile-Lys-Phe-Glu-Leu-Ser-Gly] | +20-50% | – | – | –
CC(C)CC(N)C(=O)NC(CCCNC(=N)N)C(=O)NC(CC(C)C)C(=O)NC(CCCCN)C(=O)O (stereo not drawn) [LRLK (SEQ ID NO: 1), Leu-Arg-Leu-Lys] (H-LRLK-OH; configuration not given here) | +20-50% | – | – | –
CCC(C)C(N)C(=O)NC(Cc1ccccc1)C(=O)NCC(=O)NCC(=O)NC(C(=O)NC(C(=O)NC(Cc1ccc(O)cc1)C(=O)NC(CCCNC(=N)N)C(=O)NC(CO)C(=O)O)C(C)C)C(C)O (stereo not drawn) [IFGGTVYRS (SEQ ID NO: 4), Ile-Phe-Gly-Gly-Thr-Val-Tyr-Arg-Ser] (H-IFGGTVYRS-OH; configuration not given here) | +50-90% | – | +10-30% | –
CSCCC(N)C(=O)NC(C(=O)NC(C(=O)O)C(C)C)C(C)C (stereo not drawn) [MVV (SEQ ID NO: 2), Met-Val-Val] (H-Met-Val-Val-OH; configuration not given here) | – | – | – | +20-50%
